Measurements taken from patent US9738677B2, “Amphotericin B derivative with reduced toxicity” (priority 2014, dated 2017).
“Also recorded” adds a separate entry of the source.

How the values were obtained:
[1] = ITC titration with sterol-free POPC LUVs; assay type: binding; details: no sterol LUVs, 600 μM compound
Method: Isothermal Titration calorimetry (ITC)
In an optimized isothermal titration calorimetry (ITC)-based assay, an aqueous solution of AmB was titrated with a suspension of large unilamellar vesicles (LUVs) comprised of only 1-palmitoyl-2-oleoyl-sn-glycero-3-phosphocholine (POPC), and the net exotherm was recorded. The titration was repeated using POPC LUVs containing 10% ergosterol. […] The titration was repeated using C2′epiAmB. […] The ITC assay was also conducted with cholesterol in place of ergosterol.
Experiments were performed using a NanoITC isothermal titration calorimeter (TA Instruments, Wilmington, Del.). Solutions of the compounds to be tested were prepared by diluting a 60.0 mM stock solution of the compound in DMSO to 600 μM with K buffer (5.0 mM HEPES/KHEPES, pH=7.4). The final DMSO concentration in the solution was 1% v/v. Large unilamellar vesicles comprised of only 1-palmitoyl-2-oleoyl-sn-glycero-3-phosphocholine (POPC LUVs) were prepared and phosphorus and ergosterol content was quantified as described below. […]
NanoAnalyze software (TA Instruments) was used for baseline determination and integration of the injection heats, and Microsoft Excel was used for subtraction of dilution heats and the calculation of overall heat evolved. […] By this method, the overall heat evolved during the experiment was calculated using the following formula: […]

C. albicans = assay: Mouse model of disseminated candidiasis, kidney fungal burden; assay type: in vivo; details: neutropenic mice, single intraperitoneal 16 mg/kg 2 hours post infection, kidneys at 24 hours post infection
Method: FIG. 7 is a bar graph depicting kidney fungal load (colony forming units, CFUs) in neutropenic mice inoculated intravenously with C. albicans, and then treated two hours later with a single intraperitoneal dose of vehicle or 16 mg/kg AmB or C2′epiAmB.
The antifungal efficacy of C2′epiAmB was tested in a mouse model of disseminated candidiasis. In this experiment neutropenic mice were infected with C. albicans via their tail veins, and then 2 hours post infection the mice were treated with a single intraperitoneal injection of 16 mg/kg AmB or C2′epiAmB. Then at 24 hours post infection the mice were sacrificed, and the fungal burden present in their kidneys was quantified.

healthy mice = assay: Acute toxicity, single intravenous administration, lethality; assay type: in vivo, mouse
Method: FIG. 8 is a graph depicting lethality in healthy mice resulting from single intravenous administrations in the doses indicated of AmB or C2′epiAmB.
In a separate experiment, acute toxicity was determined by single intravenous administration of AmB or C2′epiAmB to healthy mice, followed by monitoring for lethality.

C[C@@H]1[C@H](O)[C@@H](C)/C=C/C=C/C=C/C=C/C=C/C=C/C=C/[C@H](O[C@@H]2O[C@H](C)[C@@H](O)[C@H](N)[C@H]2O)CC2O[C@](O)(C[C@@H](O)C[C@@H](O)[C@H](O)CC[C@@H](O)C[C@@H](O)CC(=O)O[C@H]1C)C[C@H](O)[C@H]2C(=O)O [C2′epiAmB]
Total exotherm [1]: -6.70 ± 0.11 µcal | Reduction of kidney fungal burden relative to AmB (C. albicans): 0.5 log units | Lethality (healthy mice; healthy mice, single intravenous doses up to 16 mg/kg): no deaths observed | Acute toxicity compared to AmB (in words) (healthy mice; mice): significantly less toxic; also recorded: substantially less toxic to mice
